Experimental data reported in BindingDB's records for patent US10188615 (ACUCELA INC., 2019).

Biological target: T1, Retinoid isomerohydrolase (Human, UniProt Q16518)
T1 sequence (Q16518 whole entry): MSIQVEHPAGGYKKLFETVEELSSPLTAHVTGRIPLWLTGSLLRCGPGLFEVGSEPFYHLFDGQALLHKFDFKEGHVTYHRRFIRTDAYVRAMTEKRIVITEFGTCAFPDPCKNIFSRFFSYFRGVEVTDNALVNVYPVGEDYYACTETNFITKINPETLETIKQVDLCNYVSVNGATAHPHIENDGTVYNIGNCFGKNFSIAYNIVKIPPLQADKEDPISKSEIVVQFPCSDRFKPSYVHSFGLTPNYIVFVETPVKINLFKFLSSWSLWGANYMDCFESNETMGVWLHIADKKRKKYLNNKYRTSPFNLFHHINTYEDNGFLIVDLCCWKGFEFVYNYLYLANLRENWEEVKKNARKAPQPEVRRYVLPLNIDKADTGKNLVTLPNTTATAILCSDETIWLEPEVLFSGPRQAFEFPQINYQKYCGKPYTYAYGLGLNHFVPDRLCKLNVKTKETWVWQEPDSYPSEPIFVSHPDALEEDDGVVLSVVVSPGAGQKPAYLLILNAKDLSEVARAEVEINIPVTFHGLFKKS
Test: In Vitro Isomerase Inhibition Assay

IC50	SMILES
in the range around 5500 nM	CN(C)C(=O)CCCOc1cccc(OCCN)c1 [US10188615, Example 138]
in the range around 550 nM	NCCOc1cccc(OCC2(O)CCCCCCC2)c1 [US10188615, Example 139]
in the range around 550 nM	Cc1cccc(C)c1COc1cccc(OCCN)c1 [US10188615, Example 140]
in the range around 5500 nM	NCCCc1cc(CO)cc(OCC2CCCCC2)c1 [US10188615, Example 142]
in the range around 550 nM	NCCOc1cccc(OCCCCCO)c1 [US10188615, Example 143]
in the range around 5500 nM	NCCOc1cccc(OCCCC(N)=O)c1 [US10188615, Example 144]
in the range around 5500 nM	NCCOc1cccc(OCC(O)c2ccccc2)c1 (stereo not given) [US10188615, Example 145]
in the range around 5500 nM	NCCC(O)c1cc(OCC2CCCCC2)ccc1Br (stereo not given) [US10188615, Example 146]
in the range around 5500 nM	NCCC(O)c1cccc(OCCCC(N)=O)c1 (stereo not given) [US10188615, Example 149]
in the range around 550 nM	NCCCc1cccc(OCC(O)c2ccccc2)c1 (stereo not given) [US10188615, Example 150]
in the range around 550 nM	NCCCc1cccc(OCCCCCO)c1 [US10188615, Example 151]
in the range around 550 nM	CC(C)C(O)COc1cccc(CCCN)c1 (stereo not given) [US10188615, Example 152]
in the range around 550 nM	CC(C)C(O)COc1cccc(OCCN)c1 (stereo not given) [US10188615, Example 153]
in the range around 55 nM	Cc1cc(OCCN)cc(OCC2CCCCC2)c1 [US10188615, Example 154]
in the range around 550 nM	NCCOc1cccc(OCCCCO)c1 [US10188615, Example 156]
in the range around 550 nM	CN(C)C(=O)CCCOc1cccc(C(O)CCN)c1 (stereo not given) [US10188615, Example 157]
in the range around 55 nM	CC(C)C(O)COc1cccc(C(O)CCN)c1 (stereo not given) [US10188615, Example 158]
in the range around 5500 nM	CCCC(O)COc1cccc(OCCN)c1 (stereo not given) [US10188615, Example 159]
in the range around 5500 nM	Cc1ccc(OCC2CCCCC2)cc1OCCN [US10188615, Example 160]
in the range around 55 nM	NCCC(O)c1cccc(OCC(O)c2ccccc2)c1 (stereo not given) [US10188615, Example 161]

IC50	SMILES
in the range around 550 nM	NCCCc1cccc(OCC2CCCCO2)c1 (stereo not given) [US10188615, Example 162]
in the range around 55 nM	CCCC(O)COc1cccc(C(O)CCN)c1 (stereo not given) [US10188615, Example 163]
in the range around 550 nM	Cc1c(OCCN)cccc1OCC1CCCCC1 [US10188615, Example 164]
in the range around 550 nM	NCCC(O)c1cccc(OCCCCO)c1 (stereo not given) [US10188615, Example 165]
in the range around 55 nM	NCCC(O)c1cccc(OCCCCCO)c1 (stereo not given) [US10188615, Example 166]
in the range around 550 nM	CCCC(O)COc1cccc(CCCN)c1 (stereo not given) [US10188615, Example 167]
in the range around 550 nM	NCCCc1cc(F)cc(OCC2CCCCC2)c1 [US10188615, Example 168]
in the range around 55 nM	CC(=O)O[C@@H]1CCCC[C@H]1COc1cccc([C@H](O)CCN)c1 [US10188615, Example 173]
in the range around 55 nM	CC(=O)O[C@@H]1CCCC[C@@H]1COc1cccc([C@H](O)CCN)c1 [US10188615, Example 174]
100 to 1000 nM	NC[C@H](O)[C@@H](O)c1cccc(OCC2CCCCC2)c1 [US10188615, Example 177]
in the range around 55 nM	NCC[C@@H](O)c1cc(O)cc(OCC2CCCCC2)c1 [US10188615, Example 179]
in the range around 55 nM	NC[C@@H](O)[C@@H](O)c1cccc(OCC2CCCCC2)c1 [US10188615, Example 180]
in the range around 550 nM	CNCCC(=O)c1cccc(OCC2CCCCC2)c1 [US10188615, Example 181]
in the range around 5500 nM	NCCCCc1cccc(OCC2CCCCC2)c1 [US10188615, Example 184]
in the range around 55 nM	CNCCC(O)c1cccc(OCC2CCCCC2)c1 (stereo not given) [US10188615, Example 187]
in the range around 5500 nM	N=C(N)NCc1cccc(OCC2CCCCC2)c1 [US10188615, Example 190]
in the range around 55 nM	NCCC(F)c1cccc(OCC2CCCCC2)c1 (stereo not given) [US10188615, Example 193]
in the range around 5500 nM	NCCC#Cc1cccc(OCC2CCCCC2)c1 [US10188615, Example 196]
in the range around 55 nM	NCC#Cc1cccc(OCC2CCCCC2)c1 [US10188615, Example 197]
in the range around 550 nM	NC/C=C/c1cc(F)cc(OCC2CCCCC2)c1 [US10188615, Example 198]
